For series [1], the system named is BALB/c mice. The series can be described thus: Antibody production after immunisation with TNP-KLH. Format: in vivo. The following applies: oral administration of 150 mg/kg, day 12.
The subject of series [2] is BMMC cells. The experiment in a line: C-13 toxicity test on BMMC cells (Annexin-V and Propidium Iodide). Format: cell-based. The note with it: mouse. The method, then:
FIG. 10. Toxicity test of C-13 on BMMC cells. The BMMC cells were incubated at 37° C. in the presence of 2.5 μM or 5 μM of C-13, 0.25% DMF or Staurosporine. The percentages of live BMMC cells after 3 hours and after 5 days were detected by means of double Annexin-V and Propidium Iodide labelling. The viability of BMMC cells incubated in the presence of 2.5 μM or 5 μM of C-13 or 0.25% DMF was not affected to noteworthy degree after 3 hours (78%, 74% and 79% respectively) or five days (62, 56 and 57%, respectively). On the other hand, the viability of BMMC cells treated under the same conditions with Staurosporine was reduced to a level of 16% after only 3 hours.
• 1) Chemical products and antibodies. A chemical bank of 3000 molecules (a varied subset) was acquired from ChemBridge, Inc. (San Diego, Calif.). Stocks of solutions of small molecules were prepared at a rate of 10 mM in DMSO (dimethylsulphoxide), except for C-13 (methyl 2-{5-[(3-benzyl-4-oxo-2-thioxo-1,3-thiazolidin-5-ylidene)methyl]-2-furyl}benzoate, ChemBridge ID No. 6197026) prepared in DMF (dimethylformamide). Unless specified otherwise, all the reagents were supplied by Sigma. Dinitrophenyl (DNP) hapten was acquired from Calbiochem. Sepharose GammaBind G and all the secondary antibodies were supplied by GE Health Amersham Biosciences. The anti-Syk, anti-Lyn, anti-Btk, anti-PLC-γ1, anti-PLC-γ2, anti-LAT, anti-SLP-76, anti-p38, anti-JNK, anti-Vav, anti-Akt1 and 9E10 antibodies conjugated with HRP were acquired from Santa Cruz Biotechnology. The anti-phospho-p44/42 MAP Kinase, anti-p44/42 MAP Kinase, anti-phospho-p38, anti-phospho-JNK, anti-phospho-Akt1 antibodies were acquired from Cell Signaling. The anti-phospho-LAT and anti-phospho-PLC-γ1 antibodies were supplied by Biosource and the anti-phospho-SLP-76 antibodies by BD Pharmingen. The 4G10 anti-phosphotyrosine monoclonal antibody was acquired from Upstate Biotechnology. • 2) ADA method: ELISA type high-speed molecule screening test, based on antibody displacement (WO 2005106481). The recombinant fusion protein GST:Syk 6-242^8 comprising the residues 6 to 242 of murine Syk tyrosine kinase protein illustrated in FIG. 8B (SEQ ID No. 4) was immobilised on an ELISA plate at a final concentration of 10 μg ml^−1. For the screening of the chemical molecule bank, the small molecules, diluted in PBS at a final concentration of 10 μM were added to the wells for one hour at ambient temperature, before adding the fragment scFv G4G11 at a final concentration of 100 nM for an additional hour. The binding of G4G11 with Syk was assessed by adding the 9E10 monoclonal antibody conjugated with HRP detecting the amino acid sequence EQKLISEEDLN of human c-myc protein located at the C-terminal end of the scFv fragment. To generate Syk mutants, targeted mutagenesis was used on GST:Syk 6-242 protein and the binding of G4G11 with the mutants was assessed in the presence of 5 μM of C-13. • 3) Cells, culture conditions and functional tests. Anti-DNP 2682-I mouse monoclonal antibody was used as the culture supernatant of hybridomas containing 1 μg/ml of IgE. Femoral bone marrow cells were sampled and cultured in Opti-MEM medium (Gibco) supplemented with 10% foetal calf serum and 4% X63 transfectant supernatant secreting murine IL-3. RBL-2H3 (ATCC) leukaemic rat basophil cells were maintained in a single-layer culture in RPMI 1640 medium supplemented with 10% foetal calf serum (Gibco). […]

The subject of series [3] is SLP-76. The series can be described thus: Phosphorylation of SLP-76 (phospho-specific antibodies). The following applies: RBL-2H3 cells. Format: cell-based, rat.

`COC(=O)c1ccccc1-c1ccc(/C=C2/SC(=S)N(Cc3ccccc3)C2=O)o1` [Molecule C-13, methyl 2-{5-[(3-benzyl-4-oxo-2-thioxo-1,3-thiazolidin-5-ylidene)methyl]-2-furyl}benzoate]: in series [1], the “antibody responses of mice immunised with a thymus-dependent antigen” value is listed as “not affected”. Also, the “percentage of live BMMC cells” value amounted to 78% in series [2] (3 h, 2.5 μM); 74% in series [2] (3 h, 5 μM); 62% in series [2] (5 days, 2.5 μM); 56% in series [2] (5 days, 5 μM). In addition, the “phosphorylation of SLP-76” value in series [3] is listed as “inhibits”.

The values above are taken from US9504676B2, “Molecules inhibiting a metabolic pathway involving the Syk protein tyrosine kinase and method for identifying said molecules” (CENTRE NATIONAL DE LA RECHERCHE SCIENTIFIQUE, priority 2008, dated 2016).
